Results as given in the supplement of paper PMC10307832.

Legend:
Assay in all cases: relative viability (nuclei count vs DMSO), 5 days (fraction); higher = more cells survive
Carfilzomib + Trametinib = compound: CC(C)C[C@H](NC(=O)[C@H](CCc1ccccc1)NC(=O)CN1CCOCC1)C(=O)N[C@@H](Cc1ccccc1)C(=O)N[C@@H](CC(C)C)C(=O)[C@@]1(C)CO1 [Carfilzomib] + CC(=O)Nc1cccc(-n2c(=O)n(C3CC3)c(=O)c3c(Nc4ccc(I)cc4F)n(C)c(=O)c(C)c32)c1 [Trametinib] (partner 0.02 µM)
Procedure, shortened: (§1)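 A single step with final 0.05% Triton X-100, 1% formaldehyde and 1 ug/ml Hoechst fixed the cells and stained nuclei 5 days after treatment. Lung cancer cell lines in 1536-well plates had been treated by pin tool the day after seeding with one drug alone or a fixed anchor-drug dose plus five library-drug doses (not always all listed) in √10 steps, and nuclei were counted on 4× images. Relative viability is the ratio of nuclei in treated wells to nuclei in vehicle wells, taken as the median of duplicate plates.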

Carfilzomib + Crizotinib = compound: CC(C)C[C@H](NC(=O)[C@H](CCc1ccccc1)NC(=O)CN1CCOCC1)C(=O)N[C@@H](Cc1ccccc1)C(=O)N[C@@H](CC(C)C)C(=O)[C@@]1(C)CO1 [Carfilzomib] + C[C@@H](Oc1cc(-c2cnn(C3CCNCC3)c2)cnc1N)c1c(Cl)ccc(F)c1Cl [Crizotinib] (partner 1 µM)
Procedure, shortened: as §1

Crizotinib + Phenformin = compound: C[C@@H](Oc1cc(-c2cnn(C3CCNCC3)c2)cnc1N)c1c(Cl)ccc(F)c1Cl [Crizotinib] + N=C(N)NC(=N)NCCc1ccccc1 [Phenformin] (partner 250 µM)
Procedure, shortened: as §1

Olaparib + Trametinib = compound: O=C(c1cc(Cc2n[nH]c(=O)c3ccccc23)ccc1F)N1CCN(C(=O)C2CC2)CC1 [Olaparib] + CC(=O)Nc1cccc(-n2c(=O)n(C3CC3)c(=O)c3c(Nc4ccc(I)cc4F)n(C)c(=O)c(C)c32)c1 [Trametinib] (partner 0.02 µM)
Procedure, shortened: as §1

Cell Line	relative viability (Carfilzomib + Trametinib; first compound 0.001 µM)	relative viability (Carfilzomib + Trametinib; first compound 0.003162 µM)	relative viability (Carfilzomib + Trametinib; first compound 0.01 µM)	relative viability (Carfilzomib + Trametinib; first compound 0.03162 µM)	relative viability (Carfilzomib + Trametinib; first compound 0.1 µM)	relative viability (Carfilzomib + Crizotinib; first compound 0.001 µM)	relative viability (Carfilzomib + Crizotinib; first compound 0.003162 µM)	relative viability (Carfilzomib + Crizotinib; first compound 0.01 µM)	relative viability (Carfilzomib + Crizotinib; first compound 0.03162 µM)	relative viability (Carfilzomib + Crizotinib; first compound 0.1 µM)	relative viability (Crizotinib + Phenformin; first compound 0.01 µM)	relative viability (Crizotinib + Phenformin; first compound 0.03162 µM)	relative viability (Crizotinib + Phenformin; first compound 0.1 µM)	relative viability (Crizotinib + Phenformin; first compound 0.3162 µM)	relative viability (Crizotinib + Phenformin; first compound 1 µM)	relative viability (Olaparib + Trametinib; first compound 0.08 µM)	relative viability (Olaparib + Trametinib; first compound 0.253 µM)	relative viability (Olaparib + Trametinib; first compound 2.53 µM)	relative viability (Olaparib + Trametinib; first compound 8 µM)
NCI-H358	0.139	0.136	0.141	0.0944	0.0819	0.712	0.802	0.525	0.104	0.144	0.231	0.324	0.26	0.309	0.347	0.13	0.147	0.145	0.12
NCI-H520	0.531	0.697	0.598	0.124	0.134	0.759	0.883	0.665	0.103	0.106	0.449	0.682	0.588	0.281	0.45	0.794	0.527	0.506	0.311
ChaGo-K-1	0.873	0.924	0.878	0.47	0.168		1.2	1.18	0.634	0.303	0.457	0.511	0.486	0.329	0.457	0.949	0.792	0.819	0.735
NCI-H838	0.517	0.575	0.614	0.215	0.0888	0.876	0.972	0.923	0.577	0.122	0.553	0.604	0.556	0.516	0.526	0.585	0.493	0.536	0.547
NCI-H2126	0.516	0.61	0.58	0.563	0.447	0.98	1.07	0.989	1.01	0.707	0.464	0.591	0.511	0.528	0.507	0.527	0.55	0.584	0.596
HCC-366	0.345	0.388	0.405	0.293	0.0458	0.396	0.518	0.674	0.299	0.016	0.597	0.609	0.65		0.695	0.311	0.311	0.268	0.214
NCI-H2085	0.498	0.503	0.478	0.35	0.223	0.83	0.769	0.662	0.368	0.225	0.626	0.807	0.703		0.872	0.619	0.528	0.504	0.523
LU99A	0.525	0.588	0.541	0.417	0.284	0.585	0.667	0.584	0.291	0.16	0.761	0.857	0.786	0.769	1	0.525	0.535	0.473	0.466
NCI-H1944	0.457	0.464	0.398	0.473	0.202	1.02	1.2	1.09	1.07	0.302	0.19	0.194	0.189	0.195	0.198	0.435	0.376	0.372	0.328
NCI-H3122	0.196	0.234	0.255	0.244	0.239	0.3	0.286	0.259	0.303	0.274	0.374	0.38	0.4	0.333	0.236	0.219	0.238	0.241	0.203
LCLC-97TM1	0.19	0.21	0.227	0.0729	0.0639	0.354	0.339	0.352	0.0915	0.129	0.472	0.468	0.508	0.454	0.441	0.237	0.165	0.215	0.203
LXF-289	0.705	0.742	0.679	0.163	0.107	0.797	0.857	0.855	0.148	0.0565	0.494	0.512	0.54	0.406	0.557	0.737	0.674	0.771	0.847
HCC-78	0.672	0.849	0.69	0.597	0.255	0.323	0.383	0.351	0.345	0.144		0.682	0.772	0.598	0.465	0.861	0.647	0.716	0.707
NCI-H2405	0.758	0.748	0.686	0.536	0.236	0.807	0.916	0.866	0.785	0.175	0.364	0.417	0.378	0.412	0.398	0.767	0.597	0.677	0.641
NCI-H727	0.428	0.376	0.46	0.41	0.312	0.84	0.682	0.871	0.223	0.141		0.608	0.755		0.511	0.415	0.363	0.37	0.349
LC-2-ad	0.9	0.97	0.881	0.917	0.471	0.508	0.485	0.428	0.371	0.279	0.572	0.6	0.544	0.463	0.544	0.877	0.819	0.894	0.809
